From patent US10952992B2, “Methods of treating intraocular pressure with activators of Tie-2” (Aerpio Pharmaceuticals, Inc., priority 2015, dated 2021)
Where “and” joins values, the source holds several entries; their conditions need not be identical. Identical values can stand only once. Counter-ions that a name gives are not always drawn.

Columns and labels:
[1] = Example 2 vitreous humor concentrations; assay type: in vivo, male New Zealand White rabbits; details: for Average Peak Concentration, Vitreous Humor: solution
Method: (§1) To measure the concentration of Compound 1 in plasma and ocular tissues following topical ocular, subcutaneous, and intravitreal administration, New Zealand White rabbits were administered Compound 1, and plasma and ocular samples were collected at pre-determined time points. Compound 1 formulations were prepared fresh on each day of dosing.
(§2) Ocular tissue samples from both eyes of each animal were collected and weights were recorded. Plasma and ocular tissue sample concentrations of Compound 1 were determined by LC-MS/MS.
(§3) Animals were anesthetized for ocular (topical) and intravitreal dosing following the 12IA7 IACUC protocol. Each rabbit received a bolus dose of test formulation either via topical ocular administration 3 times daily on Days 1 and 2 (at 0, 6, and 12 hours), and once on Day 3 (at 0 hours) into both eyes; via intravitreal administration into both eyes once on Day 1 (at 0 hours); or via subcutaneous administration 2 times daily on Days 1 and 2 (at 0 and 8 hours) and once daily on Day 3 (at 0 hours). Doses were given within an approximately 1 hour window each day where applicable.
(§4) On Day 1, for intravitreal administration, or on Day 3, for topical ocular and subcutaneous administration, at the appropriate ocular tissue collection time points, animals were euthanized and both eyes were enucleated immediately. Following enucleation, each eye was rinsed with phosphate-buffered saline. Ocular tissue samples from both eyes of each animal were collected at predetermined time points and weights were recorded. All the samples were frozen immediately on dry ice, and stored at −60° C. to −80° C. pending bioanalysis.
(§5) An LC-MS/MS method was developed for the determination of Compound 1 in rabbit aqueous tissues (plasma, aqueous and vitreous humor) and solid ocular tissue samples. A pre-study standard curve was analyzed to determine the specificity, range, and lower limit of quantitation of the method. Plasma and tissue homogenate study samples were extracted and analyzed. All the samples were treated identically to the standards.
(§6) One eight-point standard curve was used in each analytical batch. To be accepted, each batch must have had at least five of eight standards with accuracy within ±20% of nominal, except at the lower limit of quantification (LLOQ), where ±25% was acceptable.

[2] = Example 2 aqueous humor concentrations; assay type: in vivo, male New Zealand White rabbits; details: for Average Peak Concentration, Aqueous Humor: solution
Method: as §1, §2, §3, §4, §5, §6

[3] = Group 1 (topical ocular 1.2 mg/eye), 2.0 hr
[4] = Group 1 (topical ocular 1.2 mg/eye), 4.0 hr
[5] = Group 1: topical ocular 0.70 mg/kg/dose
[6] = Group 2 (subcutaneous 5 mg/kg/dose, solution), 0.5 hr
[7] = Group 2 (subcutaneous 5 mg/kg/dose, solution), 1.0 hr
[8] = Group 2 (subcutaneous 5 mg/kg/dose, solution), 2.0 hr, BLOQ = below 0.2 ng/mL
[9] = Group 2 (subcutaneous 5 mg/kg/dose, solution), 4.0 hr, BLOQ = below 0.2 ng/mL
[10] = Group 2: subcutaneous 5 mg/kg/dose
[11] = Group 4 (intravitreal 2.5 mg/eye, solution), 6.0 hr
[12] = Group 4 (intravitreal 2.5 mg/eye, solution), 24 hr
[13] = Group 4 (intravitreal 2.5 mg/eye, solution), 48 hr
[14] = Group 4 (intravitreal 2.5 mg/eye, solution), 72 hr
[15] = Group 4: intravitreal 1.55 mg/kg/dose
[16] = Group 1 (topical ocular 1.2 mg/eye), 0.5 hr
[17] = Group 1 (topical ocular 1.2 mg/eye), 1.0 hr
[18] = Group 2 (subcutaneous 5 mg/kg/dose, solution), 2.0 hr

vitreous humor Conc. OS [1, 3]: 0.950 ng/mL
vitreous humor Average Conc. [1, 4]: 4.01 ng/g
vitreous humor Conc. OD [1, 4]: 1.09 ng/mL and 0.551 ng/mL
vitreous humor Conc. OS [1, 4]: 2.20 ng/mL
Average Peak Concentration, Vitreous Humor [1, 5]: 0.61 ng/g
vitreous humor Average Conc. [1, 6]: 0.83 ng/g
vitreous humor Conc. OD [1, 6]: 0.77 ng/mL and 0.537 ng/mL
vitreous humor Conc. OS [1, 6]: 1.03 ng/mL and 0.981 ng/mL
vitreous humor Average Conc. [1, 7]: 0.45 ng/g
vitreous humor Conc. OD [1, 7]: 0.252 ng/mL and 0.442 ng/mL
vitreous humor Conc. OD [1, 8]: BLOQ
vitreous humor Conc. OS [1, 8]: BLOQ
vitreous humor Conc. OD [1, 9]: BLOQ
vitreous humor Conc. OS [1, 9]: BLOQ
Average Peak Concentration, Vitreous Humor [1, 10]: 0.83 ng/g
vitreous humor Average Conc. [1, 11]: 988500 ng/g
vitreous humor Conc. OD [1, 11]: 1450000 ng/mL and 1480000 ng/mL
vitreous humor Conc. OS [1, 11]: 592000 ng/mL and 432000 ng/mL
vitreous humor Average Conc. [1, 12]: 349500 ng/g
vitreous humor Conc. OD [1, 12]: 438000 ng/mL and 406000 ng/mL
vitreous humor Conc. OS [1, 12]: 295000 ng/mL and 259000 ng/mL
vitreous humor Average Conc. [1, 13]: 82000 ng/g
vitreous humor Conc. OD [1, 13]: 85200 ng/mL and 68600 ng/mL
vitreous humor Conc. OS [1, 13]: 82300 ng/mL and 91900 ng/mL
vitreous humor Average Conc. [1, 14]: 13450 ng/g
vitreous humor Conc. OD [1, 14]: 14500 ng/mL and 11700 ng/mL
vitreous humor Conc. OS [1, 14]: 13500 ng/mL and 14100 ng/mL
Average Peak Concentration, Vitreous Humor [1, 15]: 988500 ng/g
vitreous humor concentrations vs free acid (FIG. 11) ([1]; intravitreal administration, 6 hr post-dosing): higher vitreous humor concentrations
vitreous humor concentrations vs free acid (FIG. 10) ([1]; subcutaneous administration, 0.5 hr and 1 hr post-dosing): increased vitreous humor concentrations
vitreous humor concentrations over time (FIG. 9) ([1]; topical ocular administration): increased vitreous humor concentrations
aqueous humor Average Conc. [2, 16]: 45.8 ng/g
aqueous humor Conc. OS [2, 16]: 1.78 ng/mL
aqueous humor Average Conc. [2, 17]: 15.0 ng/g
aqueous humor Conc. OD [2, 17]: 4.03 ng/mL and 3.05 ng/mL
aqueous humor Conc. OS [2, 17]: 3.55 ng/mL
aqueous humor Average Conc. [2, 3]: 31.6 ng/g
aqueous humor Conc. OD [2, 3]: 2.46 ng/mL
aqueous humor Conc. OS [2, 3]: 14.5 ng/mL and 15.8 ng/mL
aqueous humor Average Conc. [2, 4]: 8.24 ng/g
aqueous humor Conc. OD [2, 4]: 5.48 ng/mL and 7.78 ng/mL
Average Peak Concentration, Aqueous Humor [2, 5]: 45.8 ng/g
aqueous humor Average Conc. [2, 6]: 26.1 ng/g
aqueous humor Conc. OD [2, 6]: 23.5 ng/mL and 18.0 ng/mL
aqueous humor Conc. OS [2, 6]: 24.6 ng/mL and 38.2 ng/mL
aqueous humor Average Conc. [2, 7]: 3.30 ng/g
aqueous humor Conc. OD [2, 7]: 4.51 ng/mL and 3.22 ng/mL
aqueous humor Conc. OS [2, 7]: 1.84 ng/mL and 3.63 ng/mL
aqueous humor Average Conc. [2, 18]: 0.72 ng/g
aqueous humor Conc. OD [2, 18]: 0.581 ng/mL and 0.453 ng/mL
aqueous humor Conc. OS [2, 18]: 0.498 ng/mL
aqueous humor Conc. OD [2, 9]: BLOQ
aqueous humor Conc. OS [2, 9]: BLOQ
Average Peak Concentration, Aqueous Humor [2, 10]: 26.1 ng/g
aqueous humor Average Conc. [2, 11]: 80575 ng/g
aqueous humor Conc. OD [2, 11]: 90600 ng/mL and 75300 ng/mL
aqueous humor Conc. OS [2, 11]: 77100 ng/mL and 79300 ng/mL
aqueous humor Average Conc. [2, 12]: 9000 ng/g
aqueous humor Conc. OD [2, 12]: 4700 ng/mL
aqueous humor Conc. OS [2, 12]: 5190 ng/mL and 6810 ng/mL
aqueous humor Average Conc. [2, 13]: 1963 ng/g
aqueous humor Conc. OD [2, 13]: 2040 ng/mL and 2330 ng/mL
aqueous humor Conc. OS [2, 13]: 1510 ng/mL and 1970 ng/mL
aqueous humor Average Conc. [2, 14]: 34.5 ng/g
Average Peak Concentration, Aqueous Humor [2, 15]: 80575 ng/g
aqueous humor concentrations vs free acid (FIG. 8) ([2]; intravitreal administration, up to forty-eight hours post-administration): higher aqueous humor concentrations
aqueous humor concentrations (FIG. 6) ([2]; topical ocular administration, over four hours): below 50 ng/g
SMILES: COC(=O)N[C@@H](Cc1ccccc1)C(=O)N[C@@H](Cc1ccc(NS(=O)(=O)O)cc1)c1csc(-c2cccs2)n1 [Compound 1 sodium salt]
aqueous humor concentrations vs free acid (FIG. 7) ([2]; subcutaneous administration, early time points): increased aqueous humor concentrations as compared to the free acid
